Here are results for three compounds from US20260309717A1, “PROXIMITY INDUCING SYSTEM AND USES THEREOF” (SORBONNE UNIVERSITE, priority 2022, published 2026).

Format in all cases: cell-based
In test [1] the target is T1, mCherry-^FIREtag / ^FIREmate-ECFP-Giantin (Halorhodospira halophila, UniProt P16113, A30V/C69G/D97P/F96I, form not given/G21E/G25R/K17N/M100R/M109L/Q41L/Q99S/S72T/T101G/V83A/Y94W/Y98T).
T1 construct: FIREmate-ECFP-Giantin(3131-3259) and mCherry-FIREtag in HeLa cells
T1 sequence (P16113 1-114 A30V/C69G/D97P/F96I/G21E/G25R/K17N/M100R/M109L/Q41L/Q99S/S72T/T101G/V83A/Y94W/Y98T): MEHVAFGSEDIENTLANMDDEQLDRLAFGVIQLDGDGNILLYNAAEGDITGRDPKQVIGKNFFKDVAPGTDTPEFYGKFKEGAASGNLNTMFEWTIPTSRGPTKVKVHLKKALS
Description: Induction of proximity with a non-fluorogenic chromophore, HeLa cells. Conditions: 10 μM. The method, then:
HeLa cells co-expressing mCherry-^FIREtag and ^FIREmate-ECFP-Giantin were treated with 10 μM HBR-2,5DM (match1), washed with HBR-2,5DM-free medium and then treated with 10 μM HBIR-3M. Cells were imaged by time-lapse spinning-disk confocal microscopy. FIGS. 9A-D are sets of representative confocal micrographs of untreated cells (9A), cells after addition of HBR-2,5DM (match1) (9B), cells after washout of HBR-2,5DM (match1) (9C), and cells after addition of HBIR-3M (9D). (mCherry: ex/em 561/606-675 nm; FIRE: ex/em 488/508-570 nm). Scale bars are 10 μm.
Next, experiments were carried out to investigate whether other chromophores could act as molecular inducer of proximity and provide new properties. In particular, non-fluorogenic chromophores, such as HBIR-3M, were investigated. […] The fusion proteins mCherry-^FIREtag (red fluorescence) and ^FIREmate-ECFP-Giantin (blue fluorescence) were co-expressed in HeLa cells as described above.

In test [2] the target is T2, mCherry-^FIREtag / Lyn11-ECFP-^FIREmate (Halorhodospira halophila, UniProt P16113, A30V/C69G/D97P/F96I, form not given/G21E/G25R/K17N/M100R/M109L/Q41L/Q99S/S72T/T101G/V83A/Y94W/Y98T).
T2 construct: Lyn11-ECFP-FIREmate and mCherry-FIREtag in HEK293 cells
T2 sequence (P16113 1-114 A30V/C69G/D97P/F96I/G21E/G25R/K17N/M100R/M109L/Q41L/Q99S/S72T/T101G/V83A/Y94W/Y98T): T1 sequence (P16113 1-114 A30V/C69G/D97P/F96I/G21E/G25R/K17N/M100R/M109L/Q41L/Q99S/S72T/T101G/V83A/Y94W/Y98T)
Description: Recruitment of cytoplasmic protein to the plasma membrane, HEK293 cells. The conditions noted are these: 10 μM. The method, then: FIGS. 8A-E illustrate the recruitment of cytoplasmic proteins to the plasma membrane with the proximity inducing system described herein. FIG. 8A is a representation of the experimental design wherein HEK293 cells co-expressing mCherry-^FIREtag and Lyn11-ECFP-^FIREmate were treated with 10 μM of match (either HBR-2,5DM or HMBR), and imaged by time-lapse confocal microscopy. FIGS. 8B-C are graphs showing the temporal evolution of the FIRE signal detected upon addition at 0 min of HBR-2,5DM (match1-8B) or HMBR (match2-8C). Data represents the mean values±SD of 22 cells from n=3 independent experiments (8B, D), or of 30 cells from n=3 independent experiments (8C, E). FIGS. 8D-E are sets of representative confocal micrographs of cells before (0 min) and after (5 min) addition of HBR-2,5DM (match1-8D) or HMBR (match2-8E) (mCherry: ex/em 561/606-675 nm; FIRE: ex/em 488/508-570 nm; ECFP: ex/em 445/455-499 nm). […] Scale bars are 20 μm.
(§1) The confocal micrographs were acquired on a Zeiss LSM 980 Laser Scanning Microscope equipped with a plan apochromat 63x/1.4 NA oil immersion objective. ZEN software was used to collect the data. The images were analyzed using Icy (2.4.0.0) and Fiji (Image J). In short, to track fluorescence signal in a specific organelle, a ROI (region of interest) was determined by masking the signal in the ECFP (Enhanced Cyan Fluorescent Protein) channel with the plug-in HK-means with the following parameters: intensity class equals 100, minimum object size (pixels or px) equals 500, maximum object size (px) equals 1500-3000. The signal intensity of the ROI was tracked over time for each channel by using plug-in Active Contours. The background signal was subtracted. Data were processed using GraphPad Prism v9.3.0.
(§2) To further evaluate the scope of the proximity inducing system described herein and show its versatility, ^FIREmate was anchored at the membrane of various organelles or cellular structures so that ^FIREmate faced the cytosol. ^FIREmate was thus fused: • to the N-terminus of the transmembrane domain (amino acid residues at positions 3131-3259) of Giantin for location at the cis-medial rims of the Golgi apparatus (FIG. 6A), • to the N-terminus of the transmembrane domain (amino acid residues at positions 100-134) of the cytochrome b5 (Cb5) for location at the endoplasmic reticulum membrane (FIG. 7A), and • to the C-terminus of the Lyn11 inner membrane targeting sequence for location at the plasma membrane (FIG. 8A).
(§3) For each construct, an ECFP was inserted between ^FIREmate and the other protein domain/sequence to monitor the localization of the resulting fusion protein (blue fluorescence). Each fusion protein was co-expressed in mammalian cells (HeLa cells or HEK293 cells as indicated) together with mCherry-^FIREtag (red fluorescence). […]

For test [3], the target named is T3, mCherry-^FIREtag / ^FIREmate-ECFP-Cb5 (Halorhodospira halophila, UniProt P16113, A30V/C69G/D97P/F96I, form not given/G21E/G25R/K17N/M100R/M109L/Q41L/Q99S/S72T/T101G/V83A/Y94W/Y98T).
T3 construct: FIREmate-ECFP-Cb5(100-134) and mCherry-FIREtag in HeLa cells
T3 sequence (P16113 1-114 A30V/C69G/D97P/F96I/G21E/G25R/K17N/M100R/M109L/Q41L/Q99S/S72T/T101G/V83A/Y94W/Y98T): T1 sequence (P16113 1-114 A30V/C69G/D97P/F96I/G21E/G25R/K17N/M100R/M109L/Q41L/Q99S/S72T/T101G/V83A/Y94W/Y98T)
Description: Recruitment of cytoplasmic protein to the endoplasmic reticulum, HeLa cells. Conditions: 10 μM. The method, then:
FIGS. 7A-E illustrate the recruitment of cytoplasmic proteins to the endoplasmic reticulum with the proximity inducing system described herein. FIG. 7A is a representation of the experimental design wherein HeLa cells co-expressing mCherry-^FIREtag and ^FIREmate-ECFP-Cb5 were treated with 10 μM of match (either HBR-2,5DM or HMBR), and imaged by time-lapse confocal microscopy. FIGS. 7B-C are graphs showing the temporal evolution of the FIRE signal detected upon addition at 0 min of HBR-2,5DM (match1-7C) or HMBR (match2-7D). Data represents the mean values±SD of 17 cells from n=3 independent experiments (7B, D), or of 18 cells from n=3 independent experiments (7C, E). FIGS. 7D-E are sets of representative confocal micrographs of cells before (0 min) and after (5 min) addition of HBR-2,5DM (match1-7D) or HMBR (match2-7E) (mCherry: ex/em 561/606-675 nm; FIRE: ex/em 488/508-570 nm; ECFP: ex/em 445/455-499 nm). […] Scale bars are 20 μm.
as §1, §2, §3

Test [4] has as its target T1, mCherry-^FIREtag / ^FIREmate-ECFP-Giantin. Description: Recruitment of cytoplasmic protein to the Golgi apparatus, HeLa cells. The conditions noted are these: 10 μM. The method, then:
FIGS. 6A-E illustrate the recruitment of cytoplasmic proteins to the Golgi apparatus with the proximity inducing system described herein. FIG. 6A is a representation of the experimental design wherein HeLa cells co-expressing mCherry-^FIREtag and ^FIREmate-ECFP-Giantin were treated with 10 µM of match (either HBR-2,5DM or HMBR), and imaged by time-lapse confocal microscopy. FIGS. 6B-C are graphs showing the temporal evolution of the FIRE signal detected upon addition at 0 min of HBR-2,5DM (match1-6B) or HMBR (match2-6C). Data represents the mean values±SD of 10 cells from n=3 independent experiments (6B, D), or of 12 cells from n=3 independent experiments (6C, E). FIGS. 6D-E are sets of representative confocal micrographs of cells before (0 min) and after (5 min) addition of HBR-2,5DM (match1-6D) or HMBR (match2-6E) (mCherry: ex/em 561/606-675 nm; FIRE: ex/em 488/508-570 nm; ECFP: ex/em 445/455-499 nm). […] Scale bars are 20 μm.
as §1, §2, §3

For test [5], the target named is T4, ^FIREmate and ^FIREtag (fused to FRB and FKBP) (Halorhodospira halophila, UniProt P16113, A30V/C69G/D97P/F96I, form not given/G21E/G25R/K17N/M100R/M109L/Q41L/Q99S/S72T/T101G/V83A/Y94W/Y98T).
T4 sequence (P16113 1-114 A30V/C69G/D97P/F96I/G21E/G25R/K17N/M100R/M109L/Q41L/Q99S/S72T/T101G/V83A/Y94W/Y98T): T1 sequence (P16113 1-114 A30V/C69G/D97P/F96I/G21E/G25R/K17N/M100R/M109L/Q41L/Q99S/S72T/T101G/V83A/Y94W/Y98T)
Description: Flow cytometry of fluorescent ternary assembly formation in HEK293T cells co-expressing FKBP-^FIREtag and FRB-^FIREmate. The method, then: FIGS. 2A and 2B are graphs illustrating the fluorogen-dependent interaction between the two polypeptides ^FIREmate and ^FIREtag. The graphs show the normalized average fluorescence detected from about 50,000 HEK293T cells co-expressing the FK506-binding protein (FKBP) fused to ^FIREtag and the FKBP-rapamycin-binding domain of mammalian target of rapamycin (FRB) fused to ^FIREmate treated without (triangles) or with (squares) 500 nM of rapamycin, and with 1, 5, 10, 25 or 50 μM of HBR-2,5DM (2A) or HMBR (2B). Data represent the mean values±SD of three independent experiments.
The formation of a fluorescent ternary assembly was assessed by flow cytometry in HEK293 cells expressing ^FIREmate and ^FIREtag fused to the C-termini of FKBP (FK506-binding protein) and FRB (FKBP-rapamycin-binding domain of mammalian target of rapamycin), […]. FKBP and FRB are able to dimerize upon addition of rapamycin. Treatment of the HEK293 cells with rapamycin is thus expected to induce the dimerization of FKBP and FRB, and subsequently to induce proximity between ^FIREtag and ^FIREmate.
(In general: A flow cytometer gives signals particle by particle.)

Test [6] concerns mCherry-FKBP-^FIREtag / TOM20-^FIREmate / FRB-ECFP-Giantin. Description: Orthogonality with FRB-FKBP-rapamycin CIP system, confocal microscopy, HeLa cells. Conditions: simultaneous addition of 10 μM HBR-2,5DM and 500 nM rapamycin. The method, then: FIG. 12A is a representation of the experimental design wherein HeLa cells co-expressing mCherry-FKBP-^FIREtag, TOM20-^FIREmate and FRB-ECFP-Giantin were treated with 10 μM of match (i.e., HBR-2,5DM) and 500 nM rapamycin, and imaged by time-lapse confocal microscopy. FIG. 12B is a set of representative confocal micrographs of cells before and after addition of HBR-2,5DM (match1) and rapamycin (rap) (mCherry: ex/em 561/606-675 nm; FIRE: ex/em 488/508-570 nm; ECFP: ex/em 445/455-499 nm). Scale bars are 20 μm.
as §1, with “v9.3.0. […]” for “v9.3.0.”

Turning to `Cc1cc(/C=C2\SC(=O)NC2=S)ccc1O` [HBIR-3M, (Z)-5-(4-hydroxy-3-methylbenzylidene)-4-thioxo-1,3-thiazolidin-2-one], in test [1], the “assembly with ^FIREtag and ^FIREmate (tightness, fluorescence)” value is “very tight non-fluorescent ‘invisible’ assembly”. The “induction of proximity relative to HBR-2,5DM” value in test [1] (cycles of sequential addition and removal) is reported as “as efficiently as HBR-2,5DM”.

Take `Cc1cc(/C=C2\SC(=S)NC2=O)ccc1O` [HMBR, (Z)-5-(4-hydroxy-3-methylbenzylidene)-2-thioxo-1,3-thiazolidin-4-one]: in test [2], the “FIRE signal at the plasma membrane” value is on record as “simultaneous appearance of green fluorescence” and the “translocation of mCherry-^FIREtag to the plasma membrane” value was “rapid translocation of mCherry-^FIREtag to the organelle”. Besides, in test [3], the “FIRE signal at the endoplasmic reticulum” value was “simultaneous appearance of green fluorescence” and the “translocation of mCherry-^FIREtag to the endoplasmic reticulum” value is on record as “rapid translocation of mCherry-^FIREtag to the organelle”. In test [4], the “FIRE signal at the Golgi apparatus” value is given as “simultaneous appearance of green fluorescence” and the “translocation of mCherry-^FIREtag to the Golgi apparatus” value is reported as “rapid translocation of mCherry-^FIREtag to the organelle”. Besides, in test [5] (absence of rapamycin), the “dimerization of FKBP and FRB (induced proximity)” value is “able to induce the dimerization of FKBP and FRB”. In addition, the “formation of a ternary fluorescent assembly” value in test [5] (fluorogen 1, 5, 10, 25 or 50 μM, HEK293 cells) is reported as “induced the formation of a ternary fluorescent assembly at all tested fluorogen concentrations”. For the same compound, the “dependence of ternary fluorescent assembly formation on rapamycin (initial proximity)” value in test [5] (with or without 500 nM rapamycin, fluorogen 1-50 μM) was “regardless of the presence or absence of rapamycin”.

As for `CO[C@H]1C[C@@H]2CC[C@@H](C)[C@@](O)(O2)C(=O)C(=O)N2CCCC[C@H]2C(=O)O[C@H]([C@H](C)C[C@@H]2CC[C@@H](O)[C@H](OC)C2)CC(=O)[C@H](C)/C=C(\C)[C@@H](O)[C@@H](OC)C(=O)[C@H](C)C[C@H](C)/C=C/C=C/C=C/1C` [rapamycin, reference compound], the “translocation of mCherry-FKBP-^FIREtag” value in test [6] is “triggered the translocation of mCherry-FKBP-^FIREtag to the Golgi apparatus and to the mitochondria”.
